Measurements published in publication PMC10663516 (Scientific Reports, 2023).
Where two headings read alike, the source gives them in different places.

How the values were obtained:
primary CLL blasts = test: Growth inhibition of primary CLL blasts (Mosaic Spot Assay); format: cell-based; conditions: Homo sapiens, 96 h, 4 days
Excerpt: A cytotoxic dose of cisplatin acted as a positive control, with no drug treatment as a negative control.

ST949B/ABC = test: DLBCL PDX model; format: in vivo, mouse; conditions: 9 days, QD PO, TL-895 and ibrutinib 25 mg/kg, acalabrutinib 30 mg/kg
Protocol: (§1) All three compounds were formulated in a solution of 20% kleptose (hydroxypropyl β-cyclodextrin) in 50 mM citrate and administered QD PO during the treatment periods given for each model.
For mean values > 0: %ΔT/ΔC=endtumorvolumetreatment-starttumorvolumetreatment/endtumorvolumecontrol-starttumorvolumecontrol×100
For mean values ≤ 0 (i.e. regression): %ΔT/ΔC=endtumorvolumetreatment-starttumorvolumetreatment/starttumorvolumecontrol×100
The research use of patient material in PDX models at Crown Bioscience, XenoSTART and EPO-GmbH was approved by the local Institutional Ethical Review Boards and the patients provided written informed consent. Molecular analysis was performed on samples from each model using the EdgeSeq DLBCL Cell of Origin Assay (HTG Molecular Diagnostics, Tucson, AZ, USA) to confirm ABC-GCB DLBCL subtype.
Stock mice inoculated with human DLBCL cancer tissues were euthanized by progressive hypoxemia with CO2 and tumors were harvested. Tumor fragments were used at three different contract research organizations for xenotransplantation into different mouse strains for the following models: (1) 6-week-old female nude (NMRI:nu/nu) or CB17-SCID mice (Javier Labs, France): Ly12638, Ly11212, and Ly13005 (Experimental Pharmacology and Oncology Berlin-Buch GmbH [EPO-GmbH], Germany); (2) 6–8-week-old female BALB/c nude or NOD SCID mice (Beijing HFK Bioscience Co., Ltd. Beijing, China): LY0257, LY2214, LY3604, LY2298, LY2264, LY2318, and LY2345 (Crown Bioscience Inc, Taicang, China); and (3) 6–12-week-old female CB-17 SCID mice (CB17/Icr-Prkdc^scid/IcrIcoCrl Charles River Laboratories, Wilmington, MA, USA): ST118B, ST949B, ST359, ST949, ST2761B, ST2963, ST1361, ST2078, ST1735B, ST2902, and ST3497 (XenoSTART, San Antonio, TX, USA).
When the average tumor volume was within a pre-determined range (100–300 mm^3), mice were assigned to treatment groups to balance the mean starting tumor volumes (n = 5 for all models except LY13005, which was n = 3). […] Tumor volumes were recorded 2–3 times per week. Mean %∆T/∆C was calculated at the end of treatment as described above for MCL models.
(§2) Tumor volume was used as the measure of efficacy for statistical analyses of in vivo xenograft studies. Tumor volume data from individual studies were log-transformed and statistically analyzed using repeated measures analysis of covariance (RM-ANCOVA) to determine significant treatment effects, followed by post hoc Tukey’s test for multiple pairwise comparisons (all α = 0.05) using R software. Day 0 data were used only as covariates in the analyses because tumor measurements on that day were recorded before the first treatments were administered.

Daudi cells = test: Rituximab-induced ADCC, NK cell-driven lysis (Calcein-AM release); format: cell-based, human; conditions: 3 µg/mL rituximab, primary NK cells, 4 h; TL-895 0.1–10 µM, ibrutinib and acalabrutinib 0.3–30 µM
Excerpt: ADCC analysis was based on quantitation of Calcein-AM release by […] detection on a FLUOstar® Omega (BMG LABTECH).

[1] = cited from earlier work
DLBCL = conditions: cited from earlier work
Granta519 = test: Cell line-derived xenograft model of MCL; format: in vivo, mouse; conditions: SCID mice, 25 mg/kg QD PO, 14 days
Protocol: as §1
(§3) Maver-1, Granta519, and Mino mouse MCL studies were performed at Shanghai ChemPartner Co., Ltd, Shanghai, China. Five-to-six-week old female severe combined immune deficiency (SCID) mice (Vital River Lab Animal Technology Co., Ltd, Beijing, China) were inoculated with Maver-1, Granta519, or Mino cells (all obtained from ATCC) by subcutaneous (s.c.) injection (0.2 mL containing 5 × 10^7 cells/mL in a 1:1 suspension of medium:Matrigel).
(§4) […]. Tumor volumes were recorded three times per week. Tumor growth inhibition was expressed as the mean percentage treatment (T)/control (C) ratio [%∆T/∆C] and was calculated at the end of treatment.
as §2

Maver-1 = test: Cell line-derived xenograft model of MCL; format: in vivo, mouse; conditions: Maver-1 xenograft, SCID mice, 25 mg/kg QD PO, 14 days
Protocol: as §1, §3, §4, §2

Jeko-1 = test: Cell line-derived xenograft model of MCL; format: in vivo, mouse; conditions: Jeko-1 xenograft, nude mice, 25 mg/kg QD PO, 20 days
Protocol: All three compounds were formulated in a solution of 20% kleptose (hydroxypropyl β-cyclodextrin) in 50 mM citrate and administered QD PO during the treatment periods given for each model. […] Studies in the Jeko-1 mouse MCL model were performed at EMD Serono Research and Development Institute, Billerica, MA, USA. Six-to-eight-week old female nude mice (Crl:NU-Foxn1nu; Charles River Laboratories, Wilmington) were inoculated with Jeko-1 cells (obtained from ATCC) by s.c. injection (10 × 10^6 cells in 0.2 mL phosphate buffered saline with Matrigel). […] Tumor volumes were recorded twice weekly. Mean %∆T/∆C was calculated at the end of treatment as outlined above. Tumor volume was used as the measure of efficacy for statistical analyses of in vivo xenograft studies. Tumor volume data from individual studies were log-transformed and statistically analyzed using repeated measures analysis of covariance (RM-ANCOVA) to determine significant treatment effects, followed by post hoc Tukey’s test for multiple pairwise comparisons (all α = 0.05) using R software. Day 0 data were used only as covariates in the analyses because tumor measurements on that day were recorded before the first treatments were administered.

Mino = test: Cell line-derived xenograft model of MCL; conditions: SCID mice, 25 mg/kg QD PO, 27 days

SMILES | inhibition at 0.008 µM (primary CLL blasts) | inhibition at 0.04 µM (primary CLL blasts) | inhibition at 0.2 µM (primary CLL blasts) | inhibition at 1 µM (primary CLL blasts) | inhibition at 5 µM (primary CLL blasts) | inhibition at 25 µM (primary CLL blasts) | IC50 (primary CLL blasts) | %ΔT/ΔC (ST949B/ABC) | Inhibition of the ADCC mechanism of rituximab (Daudi cells) | Tumor growth vs vehicle (Granta519) | Tumor growth vs vehicle (Maver-1) | Tumor growth vs vehicle (Jeko-1) | Tumor growth vs vehicle (Mino) | also measured
CC#CC(=O)N1CCC[C@H]1c1nc(-c2ccc(C(=O)Nc3ccccn3)cc2)c2c(N)nccn12 [Acalabrutinib] | 34% | 40% | 47% | 56% | 64% | 80% | ~200 nM | 103% | neither TL-895 (0.1–10 µM) nor acalabrutinib (0.3–30 µM) inhibited the ADCC mechanism of rituximab at the lower, more clinically relevant, concentrations | – | – | – | – | Exposure ([1]; MCL, acalabrutinib oral 100 mg BID): 1111 ng·h/mL; Combined overall response rate (ORR) (DLBCL; patients with either ABC- or GCB-DLBCL): 24%
C=CC(=O)N1CCC[C@@H](n2nc(-c3ccc(Oc4ccccc4)cc3)c3c(N)ncnc32)C1 [Ibrutinib] | – | – | – | – | – | – | – | – | ADCC was inhibited by ibrutinib (0.3–30 µM) in a concentration-dependent manner | Neither TL-895 nor ibrutinib had any significant effects on tumor growth | Neither TL-895 nor ibrutinib had any significant effects on tumor growth | Neither TL-895 nor ibrutinib had any significant effects on tumor growth | Significant treatment effects were observed for TL-895 and ibrutinib versus vehicle | Area under the curve (AUC) ([1]; patients with MCL, ibrutinib 560 mg QD): 956 ng·h/mL; ORR (DLBCL; combined with R-ICE, patients with GCB-DLBCL): 90%; Reported response rate (DLBCL; patients with ABC-DLBCL): 37%; Reported response rate (DLBCL; patients with GCB-DLBLC): 5%; ORR (DLBCL; patients with wild type CD79B ABC-DLBCL): 31%
C=CC(=O)N1CCC(F)(CNc2ncnc(N)c2-c2ccc(Oc3ccccc3)cc2)CC1 [TL-895] | 43% | 50% | 53% | 61% | 72% | 90% | ~200 nM | 39% | neither TL-895 (0.1–10 µM) nor acalabrutinib (0.3–30 µM) inhibited the ADCC mechanism of rituximab at the lower, more clinically relevant, concentrations | Neither TL-895 nor ibrutinib had any significant effects on tumor growth | Neither TL-895 nor ibrutinib had any significant effects on tumor growth | Neither TL-895 nor ibrutinib had any significant effects on tumor growth | significantly inhibited tumor growth | Complete responses in patients with DLBCL (DLBCL; preliminary evidence): 1
